Measurements reported in paper PMC8187357 (Communications Biology, 2021).
Values joined by “and” are separate entries in the source; they are usually repeats but may differ in a detail not shown here. Equal entries are not always repeated. “Also recorded” adds a separate entry of the source.

What was measured:
GR, PPARγ = assay: CEREP 80 panel binding: Nuclear receptors; conditions: 10 µM
Description: (§1) CEREP 80 panel assay was carried out by Eurofins Cerep Panlabs facility at France. A series of binding assays was carried out to understand the off-target toxicity of CA-170. CA-170 was tested at 10 μM test concentration in duplicates. Compound binding was calculated as a % inhibition of the binding of a radioactively labeled ligand specific for each target. In each experiment the respective reference compound was tested concurrently with CA-170, and the data were compared with historical values determined at Eurofins. The experiment was accepted in accordance with Eurofins validation standard operating procedure. The results are expressed as a percent of control specific binding; (measured specific binding / control specific binding) × 100 and as a percent inhibition of control specific binding; 100−(measured specific binding / control specific binding) × 100 obtained in the presence of CA-170. The IC50 values (concentration causing a half-maximal inhibition of control specific binding) and Hill coefficients (nH) were determined by non-linear regression analysis of the competition curves generated with mean replicate values using Hill equation curve fitting.

Angiotensin -II AT1, AT2 = assay: CEREP 80 panel binding: Angiotensin-II; conditions: 10 µM
Description: as §1

MC38 colon carcinoma = assay: MC38 tumors in immunodeficient SCID beige mice; format: in vivo, mouse; conditions: for Individual tumor volumes: MC-38 in SCID beige mice, 10mg/kg, 10 mg/kg
Description: For MC38 syngeneic colon carcinoma subcutaneous model, 0.5 × 10^6 MC38 cells (Source: NCI/NIH, kind gift from Dr. Michael Pollack) were injected subcutaneously to the left flank of the C57B6 mouse (In-house) or SCID Beige mice (Source: Harlan, France) on day 1 and dosing was initiated when average tumor volume reached ~100 mm^3. Animals were randomized based on tumor volumes and treated with either a vehicle control or CA-170 at indicated doses for 14 days. Anti-PD1 antibody (Clone J43 from BioXcel) was dosed intraperitoneally at 100 µg/animal once every week. Treatment efficacy was assessed in terms of the effects of the test substances on the tumor volumes of treated mice relative to vehicle-treated mice. Tumor growth curves of test and control groups using the mean tumor volumes were drawn, percent tumor growth inhibition (%TGI) […].

MC38 tumor bearing mice = assay: Immune pharmacodynamics in MC38 model; format: in vivo, mouse; conditions: CA-170, 10 mg/kg, individual animals
Description: For the measurement of immune pharmacodynamics, CT26 cells were subcutaneously implanted into 5 to 7 weeks old male Balb/c mice by injecting 1 million CT26 tumor cells/ animal. When tumor volume reached ~200mm^3, animals were randomized and allocated to three treatment groups (n = 5). Similarly, for the measurement of immune pharmacodynamics in MC38 model, MC38 cell lines were subcutaneously implanted into 5 to 7 weeks old male C57B6 mice by injecting 0.5 million cells/animal. Dosing was initiated when tumor volume reached ~100 mm^3. In both tumor models, mice were orally treated daily with vehicle and CA-170 (10 mg/kg) for 5 days. As an additional control, anti-PD1 antibody (100 μg/animal, clone J43) was dosed intraperitoneally on day 1. After 24 h of last dosing, animals were sacrificed, and blood samples and tumor tissues were collected from each animal and processed for PD evaluation using antibodies shown in Supplementary Table 1 and specific methods reported in publication[51] and analyzed by FACS. The gating strategy is detailed in Supplementary Fig. 3.

parental CHO-K1 cells = assay: Cellular NMR (T2), parental CHO-K1 cells; format: binding; conditions: cell-based NMR; no measurable PD-L1 expression
Vasopressin V1a = target: T1, Vasopressin V1a (Homo sapiens, UniProt P37288); assay: CEREP 80 panel binding: Vasopressin; conditions: read-out: % Inhibition of Control Specific Binding
T1 construct: Eurofins Cerep Panlabs (contract assay)
T1 sequence (P37288 whole entry): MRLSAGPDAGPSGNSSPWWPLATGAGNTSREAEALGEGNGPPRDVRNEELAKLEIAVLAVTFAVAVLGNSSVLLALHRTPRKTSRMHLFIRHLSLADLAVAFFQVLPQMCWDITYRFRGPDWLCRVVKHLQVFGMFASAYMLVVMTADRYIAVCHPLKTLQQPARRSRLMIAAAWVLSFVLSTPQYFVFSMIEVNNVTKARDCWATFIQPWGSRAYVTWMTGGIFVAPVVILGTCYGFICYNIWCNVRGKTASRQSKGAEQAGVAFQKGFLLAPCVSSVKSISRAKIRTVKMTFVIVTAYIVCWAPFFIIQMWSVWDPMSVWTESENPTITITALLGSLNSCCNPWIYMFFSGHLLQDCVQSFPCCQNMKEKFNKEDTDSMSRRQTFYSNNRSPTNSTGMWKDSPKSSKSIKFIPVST
Description: as §1

Cannabinoid CB1 = target: T2, Cannabinoid CB1 (Homo sapiens, UniProt P21554); assay: CEREP 80 panel binding: Cannabinoid; conditions: read-out: % Inhibition of Control Specific Binding
T2 construct: Eurofins Cerep Panlabs
T2 sequence (P21554 whole entry): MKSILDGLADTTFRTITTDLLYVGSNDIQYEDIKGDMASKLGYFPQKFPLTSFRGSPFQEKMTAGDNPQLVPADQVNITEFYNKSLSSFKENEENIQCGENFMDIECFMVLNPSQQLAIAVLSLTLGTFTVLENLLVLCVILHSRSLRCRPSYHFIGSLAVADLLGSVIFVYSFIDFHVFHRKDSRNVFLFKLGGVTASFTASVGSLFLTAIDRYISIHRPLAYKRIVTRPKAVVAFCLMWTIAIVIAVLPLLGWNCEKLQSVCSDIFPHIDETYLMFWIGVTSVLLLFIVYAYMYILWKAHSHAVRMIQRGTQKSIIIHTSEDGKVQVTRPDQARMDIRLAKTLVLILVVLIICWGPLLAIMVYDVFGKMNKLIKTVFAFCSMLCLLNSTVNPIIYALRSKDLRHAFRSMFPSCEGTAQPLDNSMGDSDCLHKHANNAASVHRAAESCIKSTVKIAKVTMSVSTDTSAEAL
Description: as §1

CTLA4 = target: T3, CTLA4 (Homo sapiens, UniProt P16410); assay: CTLA4-B7.1 functional assay (IL-2, Jurkat T cells); format: cell-based; conditions: for IL2: Jurkat + B7.1 + PHA + CTLA-4 200 ng/mL, replicates
T3 construct: Fc (Ig); purchased R & D systems 325-CT
T3 sequence (P16410 with tags, fused parts or gaps limits assumed): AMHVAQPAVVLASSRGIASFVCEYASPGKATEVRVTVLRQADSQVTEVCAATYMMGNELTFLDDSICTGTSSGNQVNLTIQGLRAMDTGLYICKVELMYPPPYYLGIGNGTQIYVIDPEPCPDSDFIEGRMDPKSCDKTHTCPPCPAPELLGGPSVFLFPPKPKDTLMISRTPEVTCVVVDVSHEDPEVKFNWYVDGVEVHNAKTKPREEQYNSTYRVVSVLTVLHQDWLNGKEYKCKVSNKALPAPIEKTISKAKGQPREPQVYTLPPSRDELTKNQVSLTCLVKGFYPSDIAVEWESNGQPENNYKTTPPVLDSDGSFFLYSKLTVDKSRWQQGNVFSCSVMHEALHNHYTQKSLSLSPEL
Description: CA-170 was evaluated for its potential impact on B7.1 mediated immune-inhibitory interaction with CTLA4 by monitoring the rescue of release of IL-2 in the presence of recombinant CTLA4-Ig and B7.1 in T cells stimulated with phytohemagglutinin (PHA). Briefly, Jurkat T cells (0.25 × 10^5 cells/well of a 96-well plate) grown and starved in serum-free RPMI1640 media for 2 h were stimulated with PHA (10 µg/mL) and B7.1 (500 ng/mL) in the presence of recombinant human CTLA4-Ig (200 ng/mL) and different concentrations of CA-170 and cultured for 48 h at 37 °C. After 48 h of cell culture, supernatant was analyzed for IL-2 by ELISA. Anti-CTLA4 antibody and isotypes were used as controls.

[1] = tested on: Adrenergic α1, α2, β1, β2; assay: CEREP 80 panel binding: Adrenergic; conditions: 10 µM
Description: as §1

Histamine H1,H2 = assay: CEREP 80 panel binding: Histamine; conditions: 10 µM
Description: as §1

[2] = tested on: 5HT1A, 5HT1B, 5HT2A, 5HT2B, 5HT2C, 5HT3, 5HT5A, 5HT6, 5HT7; assay: CEREP 80 panel binding: Serotonin; conditions: 10 µM
Description: as §1

Neurotensin NTS1 = target: T4, Neurotensin NTS1 (Homo sapiens, UniProt P30989); assay: CEREP 80 panel binding: Neurotensin; conditions: read-out: % Inhibition of Control Specific Binding
T4 construct: Eurofins Cerep Panlabs (contract assay)
T4 sequence (P30989 whole entry): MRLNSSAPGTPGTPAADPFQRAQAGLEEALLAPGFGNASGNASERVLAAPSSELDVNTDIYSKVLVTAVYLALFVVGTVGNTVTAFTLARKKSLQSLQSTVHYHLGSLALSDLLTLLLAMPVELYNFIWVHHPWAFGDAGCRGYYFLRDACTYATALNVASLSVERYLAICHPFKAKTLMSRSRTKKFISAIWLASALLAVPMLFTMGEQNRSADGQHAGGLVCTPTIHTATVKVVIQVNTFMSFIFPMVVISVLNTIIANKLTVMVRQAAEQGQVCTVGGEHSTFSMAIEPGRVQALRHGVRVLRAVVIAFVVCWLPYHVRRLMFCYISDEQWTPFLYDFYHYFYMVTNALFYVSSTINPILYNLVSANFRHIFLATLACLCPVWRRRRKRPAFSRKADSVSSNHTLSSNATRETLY
Description: as §1

[3] = Tolerability in the in vivo pharmacological studies (body weights, clinical signs); conditions: all in vivo pharmacological studies
[4] = tested on: Muscarinic M1, M2, M3, M4, M5; assay: CEREP 80 panel binding: Muscarinic; conditions: 10 µM
Description: as §1

Melanocortin MC4 = target: T5, Melanocortin MC4 (Homo sapiens, UniProt P32245); assay: CEREP 80 panel binding: Melanocortin; conditions: read-out: % Inhibition of Control Specific Binding
T5 construct: Eurofins Cerep Panlabs (contract assay)
T5 sequence (P32245 whole entry): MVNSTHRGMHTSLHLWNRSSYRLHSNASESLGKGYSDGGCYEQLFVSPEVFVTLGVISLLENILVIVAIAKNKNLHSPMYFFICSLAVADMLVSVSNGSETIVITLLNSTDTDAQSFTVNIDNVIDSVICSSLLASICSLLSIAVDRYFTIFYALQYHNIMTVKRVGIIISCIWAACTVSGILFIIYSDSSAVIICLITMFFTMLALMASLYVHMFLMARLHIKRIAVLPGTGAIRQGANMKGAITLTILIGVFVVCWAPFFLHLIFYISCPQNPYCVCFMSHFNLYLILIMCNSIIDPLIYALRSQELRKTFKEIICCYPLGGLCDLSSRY
Description: as §1

Bradykinin B2 = target: T6, Bradykinin B2 (Homo sapiens, UniProt P30411); assay: CEREP 80 panel binding: Bradykinin; conditions: read-out: % Inhibition of Control Specific Binding
T6 construct: Eurofins Cerep Panlabs (contract assay)
T6 sequence (P30411 whole entry): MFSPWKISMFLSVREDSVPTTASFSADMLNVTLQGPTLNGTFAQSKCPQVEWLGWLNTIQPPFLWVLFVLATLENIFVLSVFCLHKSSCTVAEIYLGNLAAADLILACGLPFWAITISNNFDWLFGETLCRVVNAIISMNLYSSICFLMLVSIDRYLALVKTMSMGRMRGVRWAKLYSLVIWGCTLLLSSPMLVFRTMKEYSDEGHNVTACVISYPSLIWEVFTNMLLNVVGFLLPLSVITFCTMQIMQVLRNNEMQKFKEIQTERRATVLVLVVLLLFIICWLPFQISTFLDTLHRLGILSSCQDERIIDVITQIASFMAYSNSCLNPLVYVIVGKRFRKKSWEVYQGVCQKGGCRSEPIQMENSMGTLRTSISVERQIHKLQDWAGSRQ
Description: as §1

CGRP = target: T7, CGRP (Homo sapiens, UniProt O60894+Q16602); assay: CEREP 80 panel binding: CGRP; conditions: read-out: % Inhibition of Control Specific Binding
T7 construct: Eurofins Cerep Panlabs (contract assay)
T7 sequence (Q16602 23-461): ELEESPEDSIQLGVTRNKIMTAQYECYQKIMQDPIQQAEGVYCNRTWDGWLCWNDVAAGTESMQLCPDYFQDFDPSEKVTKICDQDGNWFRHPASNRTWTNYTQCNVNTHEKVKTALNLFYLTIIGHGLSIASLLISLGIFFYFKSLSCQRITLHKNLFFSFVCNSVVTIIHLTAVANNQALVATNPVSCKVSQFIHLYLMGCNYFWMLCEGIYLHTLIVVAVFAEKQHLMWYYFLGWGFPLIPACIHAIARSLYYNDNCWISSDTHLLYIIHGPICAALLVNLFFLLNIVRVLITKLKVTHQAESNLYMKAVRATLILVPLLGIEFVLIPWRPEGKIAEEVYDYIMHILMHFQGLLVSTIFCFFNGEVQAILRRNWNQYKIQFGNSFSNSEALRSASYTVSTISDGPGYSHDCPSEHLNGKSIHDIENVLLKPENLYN
T7 sequence (O60894 27-148): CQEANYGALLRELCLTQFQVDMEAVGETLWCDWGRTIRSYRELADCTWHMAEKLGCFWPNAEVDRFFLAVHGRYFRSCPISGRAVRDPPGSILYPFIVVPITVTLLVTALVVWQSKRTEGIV
Description: as §1

C[C@@H](O)[C@H](NC(=O)N[C@@H](CC(N)=O)c1nc([C@@H](N)CO)no1)C(=O)O [CA-170]
% Inhibition of Control Specific Binding (GR, PPARγ): ≤ 7%
% Inhibition of Control Specific Binding (Angiotensin -II AT1, AT2): ≤ 5%
Individual tumor volumes (MC38 colon carcinoma; day 0 of treatment): 18.9 mm3 and 19.8 mm3 and 20.5 mm3 and 23 mm3 and 24.3 mm3 and 24.4 mm3 and 27.8 mm3 and 29.3 mm3 and 36.6 mm3 and 38.8 mm3 and 45.9 mm3
Individual tumor volumes (MC38 colon carcinoma; day 4 of treatment): 165.2 mm3 and 101 mm3 and 33 mm3 and 98.6 mm3 and 101.4 mm3 and 42.7 mm3 and 80.2 mm3 and 120.3 mm3 and 117 mm3 and 120.8 mm3 and 58.8 mm3
Individual tumor volumes (MC38 colon carcinoma; day 6 of treatment): 428.8 mm3 and 320.3 mm3 and 190.1 mm3 and 337.3 mm3 and 331.1 mm3 and 174.3 mm3 and 206.7 mm3 and 322.4 mm3 and 214 mm3 and 233.5 mm3 and 207.9 mm3
Individual tumor volumes (MC38 colon carcinoma; day 8 of treatment): 764.7 mm3 and 861.8 mm3 and 304.4 mm3 and 735.9 mm3 and 484.9 mm3 and 297 mm3 and 527.3 mm3 and 483.7 mm3 and 349.6 mm3 and 472.6 mm3 and 369.9 mm3
Individual tumor volumes (MC38 colon carcinoma; day 11 of treatment): 1229.8 mm3 and 1458.4 mm3 and 838.9 mm3 and 1334.2 mm3 and 1120.4 mm3 and 912.1 mm3 and 1214.1 mm3 and 1274.2 mm3 and 788.4 mm3 and 1032.8 mm3 and 931.5 mm3
Individual tumor volumes (MC38 colon carcinoma; day 13 of treatment): 1679 mm3 and 1958.7 mm3 and 1062 mm3 and 1678.6 mm3 and 1535.8 mm3 and 938 mm3 and 1760.9 mm3 and 1177.1 mm3 and 1641.5 mm3 and 1410.5 mm3
tumor growth vs vehicle in immunodeficient mice (in words) (MC38 colon carcinoma; SCID beige mice, MC-38, 10 mg/kg/day for 14 days): no difference in the tumor volumes; also recorded: no statistically significant difference
CD8+ GNZ+ T cells in Tumor % Lymphocytes, CD3+, CD8+ T cells (MC38 tumor bearing mice): 52.4% and 36.3% and 28.5% and 36.2% and 20.1%
CD8+ IFN-γ+ T cells in Blood % Lymphocytes, CD3+, CD8+ T cells (MC38 tumor bearing mice): 1.71% and 2.24% and 2.27% and 1.35% and 2.63%
CD8+ IFN-γ+ T cells in Tumor % Lymphocytes, CD3+, CD8+ T cells (MC38 tumor bearing mice): 64.9% and 53.2% and 43.5% and 48.8% and 40.7%
binding to parental CHO-K1 cells (in words) (parental CHO-K1 cells): lack of binding
inhibition at 10 µM (Vasopressin V1a): 1%
inhibition at 10 µM (Cannabinoid CB1): 12%
IL2 (CTLA4; 10 nM): 100.732 pg/mL and 119.610 pg/mL and 100.195 pg/mL
IL2 (CTLA4; 100 nM): 131.122 pg/mL and 123.634 pg/mL and 97.951 pg/mL
IL2 (CTLA4; 1000 nM): 139.927 pg/mL and 131.366 pg/mL and 108.171 pg/mL
rescue of IL-2 release inhibited by recombinant hCTLA-4 (in words) (CTLA4; Jurkat cells stimulated with PHA + human B7-1): did not rescue the release of IL-2
% Inhibition of Control Specific Binding [1]: ≤ 6%
% Inhibition of Control Specific Binding (Histamine H1,H2): < 0%
% Inhibition of Control Specific Binding [2]: ≤ 20%
inhibition at 10 µM (Neurotensin NTS1): 7%
tolerability (body weights, clinical signs; in words) [3]: well tolerated
% Inhibition of Control Specific Binding [4]: ≤ 12%
inhibition at 10 µM (Melanocortin MC4): 0%
inhibition at 10 µM (Bradykinin B2): < 0%
inhibition at 10 µM (CGRP): 1%
